Measured values as given in patent publication US12440475B2, “Hodgkin lymphoma therapy” (priority 2016, dated 2025).

Tests used:
L428 cells = assay: L428 xenograft in NSG mice, CD30 immunofluorescence of cytospin slides; format: in vivo; set-up: key to Spleen, red pulp activation, diffuse (CD30 staining score per animal) / Liver, Tumour cell infiltration (CD30 staining score per animal) / Bone marrow (CD30 staining score per animal): 0: without any staining; minimal, <1% staining; 2: mild, 1% staining; 3: moderate, <10% staining; marked, 10-40% staining; 5: severe, >40% of cells staining
Description: Immunodeficient NOD-SCID-gammac−/− (NSG) mice aged 5 to 6 weeks were purchased from Charles River (NOD.Cg-Prkdcscid II2rgtm1Wjl/SzJ). The mice arrived two weeks before the beginning of the experiments and were housed in micro-isolator cages during the entire course of the study. Immediately prior to the injection of Hodgkin lymphoma cells, mice were exposed to 3 Gy gamma irradiation using an IBL637 ^137Cs irradiator at a dose rate of 0.61 Gy/min. From 10^3 to 10^6 cells, either from the original cell lines or following amplification, were injected intravenously via the retro-orbital sinus. The mice were sacrificed by cervical dislocation and different organs were analysed and tumoural infiltration examined using multiple techniques.
Two independent experiments were performed to investigate the dose-effect of EDO-S101 in NSG mice eight weeks after xenografting with L428 cells as in Example 8. The aim of the protocol shown in FIG. […]
The mice were sacrificed by cervical dislocation. The sampled organs consisted of the eyes (site of injection), liver, spleen and bone marrow. Following dissection of different organs, including tumours, the first portion was used for flow cytometry (FACS) and cytogenetic analyses while the second was fixed in 4% paraformaldehyde (PFA) for immunohistochemistry (IHC). To obtain a single cell suspension, the tissues were first cut into pieces. Thereafter, the cells were physically disaggregated using an 80 μm nylon cell strainer and filtered a second time through a 70 μm nylon cell strainer (BD Biosciences, Erembodegem, Belgium).
Cells were cytospun onto poly-L-lysine-coated glass slides at 700 rpm for 4 min, fixed with 10% formalin for 10 min, and treated with 0.25% Triton X-100 solution for 10 min. After blocking with 5% bovine serum albumin (Sigma), the cells were incubated with an anti-CD30 antibody (DAKO A/S, Glostrup, Denmark). Then, cells were treated with Cyanine 3 anti-mouse IgG (Invitrogen, Carlsbad, CA). As a negative control, staining was carried out in the absence of primary antibody. The L428-s cell line served as positive control.
Individual microscopic findings following immunofluorescence CD30 staining of cytopsin slides: “0”=without any staining; “1”=minimal, <1% staining; “2”=mild, 1% staining; “3”=moderate, <10% staining; “4”=marked, 10-40% staining; “5”=severe, >40% of cells staining.

L540 = assay: Clonogenic survival in methylcellulose, L540; format: cell-based, human; settings: any dose (0.1, 0.5, 1, 10 and 20 μmol)
Method: In all examples, the human Hodgkin lymphoma-derived cell lines L428, L428-c, KMH2, L591, L540, L1236, HDLM2 and SUP-HD were obtained from Dr Steffen Junker (Aarhus University Denmark). All cell lines were cultured in Gibco RPMI 1640 medium supplemented with Glutamax, 10% FBS and antibiotics at 37° C. […] The immunophenotype, P53 status and MSI characterization of the Hodgkin lymphoma cell lines was determined using anti-CD30, CD15, CD20 and CD14 antibodies.
This test was performed on four Hodgkin lymphoma cell lines (L428, L428s, KMH2 and L540). Each was cultured with EDO-S101 at doses of 0, 0.1, 0.5, 1, 10 and 20 μmol in DMSO. The cell lines were cultured in methylcellulose (Stem cell Technologies) at a concentration of 10^5/ml at 37° C. and 5% CO2. The surviving fraction was determined by measuring the viability of colonies generated before and after exposure. Only colonies with more than 50 cells were counted. Each data point represents the average and SD from three independent experiments performed in triplicate.

L1236 = assay: Combination with Brentuximab Vedotin, % survival, L1236; format: cell-based, human; settings: EDO-S101 1.56 μM (sub-IC50) with Brentuximab Vedotin 3.12 μg/ml
Method: 1.56 μM of EDO-S101 was administered to two Hodgkin lymphoma cell lines, the bendamustine naïve cell line L1236 and the bendamustine resistant cell line R100. In a second experiment, Brentuximab Vedotin was administered at a concentration of 3.12 μg/ml to the L1236 cell line and at a concentration of 0.39 μg/ml to the R100 cell line. Finally, in a third experiment EDO-S101 and Brentuximab Vedotin were administered in combination to each of the two cell lines at the same concentrations that they were administered in the monotherapy experiments.

CD14 cells = assay: CD14-positive cells by flow cytometry in xenografted NSG mice; format: in vivo
Method: Cells were gated to exclude apoptotic or necrotic cells and sorted into CD30−/CD15− and CD30+ and CD15+/CD30+ fractions by gating on the lowest and highest 5% PE-expressing cells, respectively. Following sorting, the CD30−/CD15− cell fractions were analyzed using a FACScan flow cytometer (Becton Dickinson) and found to be more than 98% pure. For phenotypic analyses of cell lines or sorted cells, cells were prepared as described, and then stained with mouse anti-human CD30-phycoerthrin (PE), CD15—fluorescein isothyocyanate (FITC), CD14-APC-cyanine 7 (Cy7) and CD45-APC (all antibodies from BD PharMingen, San Diego, CA). […] Cells were subsequently analysed using a FACS LSRII (Becton Dickinson, Franklin Lakes, NJ). […]
Novel biomarkers CD68 and CD14 which are expressed by tumour associated macrophages and myeloid derived suppressor cells respectively in the microenvironment have recently been reported to affect the prognosis of Hodgkin lymphoma (Haematologica, 2011 February; 96(2): 186-189). The presence of the CD14-positive cells following administration of a single dose of EDO-S101 (60 mg/kg or 80 mg/kg) and after two administrations of EDO-S101 at 60 mg/kg was evaluated using flow cytometry with anti CD14 antibodies.

## Cn1c(CCCCCCC(=O)NO)nc2cc(N(CCCl)CCCl)ccc21 [EDO-S101]
L428 cells; 1*60 mg/kg
  Spleen, red pulp activation, diffuse (CD30 staining score per animal): 0
L428 cells; 1*60 mg/kg, 60 mg/kg
  Liver, Tumour cell infiltration (CD30 staining score per animal): 0
L428 cells; 1*80 mg/kg
  Liver, Tumour cell infiltration (CD30 staining score per animal): 0
  Spleen, red pulp activation, diffuse (CD30 staining score per animal): 0
L428 cells; 2*60 mg/kg, 60 mg/kg
  Bone marrow (CD30 staining score per animal): 0
  Liver, Tumour cell infiltration (CD30 staining score per animal): 0
  Spleen, red pulp activation, diffuse (CD30 staining score per animal): 0
L428 cells; single dose of 80 mg/kg
  tumour cells in organs (liver, spleen, bone marrow): No tumour cells were observed in any organs
L540
  clones observed (clonogenic survival): No clone was observed
L1236
  cell death in combination with Brentuximab Vedotin: synergistic
CD14 cells; 60 mg/kg, 80 mg/kg, 2×60 mg/kg
  frequency of CD14 cells, untreated versus treated mice: significantly higher frequency of CD14 cells in untreated mice compared to treated mice
CD14 cells; mouse, in vivo
  frequency of CD14 cells, 2×60 mg/kg versus 80 mg/kg: higher frequency following treatment with 2×60 mg/kg than treatment with a single dose of 80 mg/kg
